Assay results from PubChem BioAssay AID1919006 (Molecular Pharmacology Branch, DTP, NCI, 2023).

Test system: 885512-296-R-J2-PDC complex spheroid growth, % test/control
Test: Anticancer human tumor 885512-296-R-J2-PDC patient-derived breast carcinoma cell line growth inhibition [AhR]
Details: for IC50: curve of first compound; for viability, T/C: stronger effect = lower value
Outline: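 Complex tumor spheroids co-cultured with HUVEC and human MSC stroma; AhR antagonists tested in combination with standard-of-care and investigational agents. Top concentration at or near clinical Cmax (else 10 microM), half-log dilutions; growth expressed as percent test/control.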

[1] = second compound 0.1 µM, first compound 0.0316 µM
[2] = second compound 0.1 µM, first compound 0.1 µM
[3] = second compound 0.1 µM, first compound 0.316 µM
[4] = second compound 0.1 µM, first compound 1 µM
[5] = second compound 0.1 µM, first compound 3.16 µM
[6] = second compound 0.1 µM, first compound 10 µM
[7] = second compound 0.316 µM, first compound 0.0316 µM
[8] = second compound 0.316 µM, first compound 0.1 µM
[9] = second compound 0.316 µM, first compound 0.316 µM
[10] = second compound 0.316 µM, first compound 1 µM
[11] = second compound 0.316 µM, first compound 3.16 µM
[12] = second compound 0.316 µM, first compound 10 µM
[13] = second compound 1 µM, first compound 0.0316 µM
[14] = second compound 1 µM, first compound 0.1 µM
[15] = second compound 1 µM, first compound 0.316 µM
[16] = second compound 1 µM, first compound 1 µM
[17] = second compound 1 µM, first compound 3.16 µM
[18] = second compound 1 µM, first compound 10 µM
[19] = second compound 3.16 µM, first compound 0.0316 µM
[20] = second compound 3.16 µM, first compound 0.1 µM
[21] = second compound 3.16 µM, first compound 0.316 µM
[22] = second compound 3.16 µM, first compound 1 µM
[23] = second compound 3.16 µM, first compound 3.16 µM
[24] = second compound 3.16 µM, first compound 10 µM
[25] = second compound 10 µM, first compound 0.0316 µM
[26] = second compound 10 µM, first compound 0.1 µM
[27] = second compound 10 µM, first compound 0.316 µM
[28] = second compound 10 µM, first compound 1 µM
[29] = second compound 10 µM, first compound 3.16 µM
[30] = second compound 10 µM, first compound 10 µM
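Also: spheroids exposed to compounds for seven days.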

Q: With `NS(=O)(=O)OCC1CC(n2ccc3c(NC4CCc5ccccc54)ncnc32)CC1O` (stereo not given) + Cc1cncc(-c2nc(NCCc3c[nH]c4ccccc34)c3ncn(C(C)C)c3n2)c1 as the compound, how does the IC50 (second compound 0.1 µM) read?
A: Its IC50 is 90.4 nM.

Q: What about the IC50 (second compound 0.316 µM) of the same compound?
A: Its IC50 is 89.4 nM.

Q: What about the IC50 (second compound 1 µM) of the same compound?
A: Its IC50 is 77.4 nM.

Q: And the IC50 (second compound 3.16 µM)?
A: Its IC50 is 43.6 nM.

Q: And the IC50 (second compound 10 µM)?
A: The IC50 was under 31.6 nM.

Q: And the viability, T/C [1]?
A: The viability, T/C was 96.2%.

Q: What about the viability, T/C [2] of the same compound?
A: The viability, T/C was 45.6%.

Q: And the viability, T/C [3]?
A: The viability, T/C was 16.5%.

Q: And the viability, T/C [4]?
A: The viability, T/C was 8.26%.

Q: And the viability, T/C [5]?
A: Its viability, T/C is 5.94%.

Q: What about the viability, T/C [6] of the same compound?
A: Its viability, T/C is 6.36%.

Q: What about the viability, T/C [7] of the same compound?
A: The viability, T/C was 89.7%.

Q: What about the viability, T/C [8] of the same compound?
A: The viability, T/C was 45.6%.

Q: And the viability, T/C [9]?
A: The viability, T/C was 17.4%.

Q: And the viability, T/C [10]?
A: Its viability, T/C is 6.34%.

Q: What about the viability, T/C [11] of the same compound?
A: Its viability, T/C is 6.04%.

Q: And the viability, T/C [12]?
A: The viability, T/C was 5.52%.

Q: And the viability, T/C [13]?
A: Its viability, T/C is 81.3%.

Q: And the viability, T/C [14]?
A: Its viability, T/C is 41%.

Q: And the viability, T/C [15]?
A: The viability, T/C was 13.9%.

Q: What about the viability, T/C [16] of the same compound?
A: The viability, T/C was 5.67%.

Q: What about the viability, T/C [17] of the same compound?
A: Its viability, T/C is 4.18%.

Q: What about the viability, T/C [18] of the same compound?
A: Its viability, T/C is 4.92%.

Q: And the viability, T/C [19]?
A: The viability, T/C was 58.5%.

Q: And the viability, T/C [20]?
A: The viability, T/C was 28%.

Q: And the viability, T/C [21]?
A: The viability, T/C was 8.09%.

Q: What about the viability, T/C [22] of the same compound?
A: Its viability, T/C is 3.67%.

Q: And the viability, T/C [23]?
A: Its viability, T/C is 3.02%.

Q: And the viability, T/C [24]?
A: The viability, T/C was 2.73%.

Q: And the viability, T/C [25]?
A: Its viability, T/C is 10.3%.

Q: What about the viability, T/C [26] of the same compound?
A: Its viability, T/C is 8.3%.

Q: What about the viability, T/C [27] of the same compound?
A: The viability, T/C was 3.54%.

Q: What about the viability, T/C [28] of the same compound?
A: Its viability, T/C is 2.33%.

Q: And the viability, T/C [29]?
A: Its viability, T/C is 1.76%.

Q: And the viability, T/C [30]?
A: The viability, T/C was 1.73%.

Q: For `CC(C)c1c(-c2ccccc2)nc2c(C#N)c[nH]n2c1=O` + CC(CO)NC(=O)c1cc(-c2ccc(Cl)cc2)nn(-c2cnn(C)c2)c1=O, which IC50 (second compound 0.1 µM) is on record?
A: Its IC50 is over 10000 nM.

Q: And the IC50 (second compound 0.316 µM)?
A: The IC50 was over 10000 nM.

Q: And the IC50 (second compound 1 µM)?
A: Its IC50 is over 10000 nM.

Q: And the IC50 (second compound 3.16 µM)?
A: Its IC50 is over 10000 nM.

Q: What about the IC50 (second compound 10 µM) of the same compound?
A: Its IC50 is over 10000 nM.

Q: And the viability, T/C [1]?
A: Its viability, T/C is 110%.

Q: What about the viability, T/C [2] of the same compound?
A: Its viability, T/C is 101%.

Q: And the viability, T/C [3]?
A: Its viability, T/C is 97.6%.

Q: And the viability, T/C [4]?
A: Its viability, T/C is 98%.

Q: What about the viability, T/C [5] of the same compound?
A: The viability, T/C was 98.2%.

Q: And the viability, T/C [6]?
A: Its viability, T/C is 85.5%.

Q: What about the viability, T/C [7] of the same compound?
A: The viability, T/C was 105%.

Q: What about the viability, T/C [8] of the same compound?
A: Its viability, T/C is 101%.

Q: And the viability, T/C [9]?
A: The viability, T/C was 104%.

Q: And the viability, T/C [10]?
A: Its viability, T/C is 102%.

Q: And the viability, T/C [11]?
A: The viability, T/C was 93.3%.

Q: What about the viability, T/C [12] of the same compound?
A: The viability, T/C was 91.7%.

Q: And the viability, T/C [13]?
A: The viability, T/C was 105%.

Q: What about the viability, T/C [14] of the same compound?
A: Its viability, T/C is 96.4%.

Q: And the viability, T/C [15]?
A: Its viability, T/C is 107%.

Q: And the viability, T/C [16]?
A: The viability, T/C was 91.7%.

Q: What about the viability, T/C [17] of the same compound?
A: The viability, T/C was 99.1%.

Q: And the viability, T/C [18]?
A: The viability, T/C was 89.2%.

Q: What about the viability, T/C [19] of the same compound?
A: Its viability, T/C is 108%.

Q: What about the viability, T/C [20] of the same compound?
A: Its viability, T/C is 104%.

Q: And the viability, T/C [21]?
A: The viability, T/C was 99.5%.

Q: What about the viability, T/C [22] of the same compound?
A: The viability, T/C was 111%.

Q: What about the viability, T/C [23] of the same compound?
A: The viability, T/C was 105%.

Q: What about the viability, T/C [24] of the same compound?
A: Its viability, T/C is 89.7%.

Q: And the viability, T/C [25]?
A: Its viability, T/C is 109%.

Q: And the viability, T/C [26]?
A: The viability, T/C was 91.2%.

Q: And the viability, T/C [27]?
A: The viability, T/C was 86.9%.

Q: And the viability, T/C [28]?
A: The viability, T/C was 102%.

Q: What about the viability, T/C [29] of the same compound?
A: The viability, T/C was 97.2%.

Q: What about the viability, T/C [30] of the same compound?
A: Its viability, T/C is 77%.

Q: What does the source list for `Nc1ccccc1NC(=O)c1ccc(CNC(=O)OCc2cccnc2)cc1` + CC(CO)NC(=O)c1cc(-c2ccc(Cl)cc2)nn(-c2cnn(C)c2)c1=O?
A: IC50 (second compound 0.1 µM): 696 nM; IC50 (second compound 0.316 µM): 620 nM; IC50 (second compound 1 µM): 704 nM; IC50 (second compound 3.16 µM): 590 nM; IC50 (second compound 10 µM): 452 nM; viability, T/C [1]: 91.9%; viability, T/C [2]: 76.4%; viability, T/C [3]: 61.9%; viability, T/C [4]: 42%; viability, T/C [5]: 31.8%; viability, T/C [6]: 13%; viability, T/C [7]: 85.1%; viability, T/C [8]: 70.3%; viability, T/C [9]: 62.2%; viability, T/C [10]: 43.4%; viability, T/C [11]: 24.6%; viability, T/C [12]: 11.6%; viability, T/C [13]: 92.8%; viability, T/C [14]: 80.2%; viability, T/C [15]: 58.8%; viability, T/C [16]: 44%; viability, T/C [17]: 32.6%; viability, T/C [18]: 11.6%; viability, T/C [19]: 85.4%; viability, T/C [20]: 78.6%; viability, T/C [21]: 59%; viability, T/C [22]: 36.8%; viability, T/C [23]: 31.4%; viability, T/C [24]: 9.96%; viability, T/C [25]: 82.6%; viability, T/C [26]: 74.2%; viability, T/C [27]: 55.5%; viability, T/C [28]: 34%; viability, T/C [29]: 24.1%; viability, T/C [30]: 6.25%
